Test results: article PMC9127501 (Frontiers in Microbiology, 2022)
Values joined by “and” are separate entries in the source; they are usually repeats but may differ in a detail not shown here. Equal values may be shown once. Read-outs that look alike come from different tables or passages of the source.

What was measured:
HCoV-229E [1] = assay: MTT-based antiviral assay (protection from virus-induced CPE) in HCoV-229E-infected MRC-5 cells; type: cell-based, Human Coronavirus strain 229E; conditions: for % Antiviral Activity (Range) / EC50: HCoV-229E-infected MRC-5, 6 days; for % Antiviral Activity (Range): range over the assay conc. range of each compound; for maximum antiviral effect: MRC-5, maximum over concentrations tested; for EC50: MRC5, 144 h, no unit in head (assay conc. and CC50 columns in µM)
HCoV-229E [2] = assay: qRT-PCR viral load in supernatants of HCoV-229E-infected MRC-5 cells; type: cell-based, Human Coronavirus strain 229E
in vitro [3] = conditions: human
recombinant SCoV-2 PLpro = recombinant SCoV-2 PLpro (Severe acute respiratory syndrome coronavirus 2, UniProt P0DTD1); assay: SCoV-2 PLpro inhibition assay (peptide-AMC fluorescence); type: biochemical, SARS-CoV-2; conditions: 60 μM peptide-AMC, 37°C, 45 min
Vero E6 cells = assay: Cytotoxicity assay in Vero E6 cells (Hoechst 33342 / Sytox orange imaging); conditions: for cytotoxicity: Vero E6
[4] = as above; conditions: African green monkey
SCoV-2 [5] = assay: Immunofluorescence antiviral screening assay (SCoV-2 nucleocapsid staining) in Vero E6 cells; type: cell-based, SARS-CoV-2
Experimental: The antiviral activity of the selected compound against SCoV-2 was analysed by immunofluorescent assay in a 96-well plate. For this, ~10^4 Vero E6 cells per well were seeded and grown to ≥80% confluency. At this stage, cells in replicate wells were treated with a safe dose (identified from the cytotoxicity studies) of the selected compound or with 10μM Remdesivir. These assays also included the necessary negative controls for comparison. The cells were infected with SCoV-2 at 0.1 MOI and, post-30 h incubation, fixed in 4% paraformaldehyde, permeabilized with 0.3% Tween-20 and stained with anti-mouse mAb specific to SCoV-2 Nucleocapsid (primary) followed by staining with Alexafluor 568-labelled anti-mouse antibody (secondary). Prior to mounting, monolayers were treated with Hoechst 33342 to stain the nuclei and the images were captured using ImageXpress Micro Confocal (Molecular devices) at 10 × magnification (16 images/well). The data was analysed in MetaXpress software using a multi-wavelength cell scoring module and the cells double-positive for the viral nucleocapsid as well as nuclei were counted and compared with that in the controls.

PLpro = conditions: reported value, reference not printed at the place; cited from earlier work
SCoV-2 [6] = system: SCoV-2; parameters: method as in Meyer et al., [2020]; conditions: at clinically relevant concentrations; ref Meyer et al., [2020]; cited from earlier work
in vitro [7] = conditions: African green monkey, % Cell Viability, Vero E6, 30 h
[8] = HCoV-229E-infected MRC-5, 6 days, range over the assay conc. range
[9] = MRC-5, across the tested concentrations
[10] = MRC-5 cells (human lung fibroblasts), uninfected

In the case of `C[C@@H]1O[C@@H](OC[C@H]2O[C@@H](Oc3c(-c4ccc(O)c(O)c4)oc4cc(O)cc(O)c4c3=O)[C@H](O)[C@@H](O)[C@@H]2O)[C@H](O)[C@H](O)[C@H]1O` [Rutin], the “virus-infected cells protected from virus-induced CPE” value (HCoV-229E [1]; HCoV-229E, MRC-5, concentration not stated at the place) is reported as “about 37%”, the “% Antiviral Activity (Range)” value (HCoV-229E [1]) is reported as -1.1 to +37.1% and the “log10 inhibition / reduction in viral titers” value (HCoV-229E [2]) is reported as about 0.2 log10. For the same compound, the “reduction in viral titers” value (HCoV-229E [2]) was 38.44%, the “% Reduction in Viral Load (Range)” value (HCoV-229E [2]; [8]) was “+38.4 to -455.4%” and the “Log10 Reduction in Viral Load (Range)” value (HCoV-229E [2]; [8]) was “+0.21 to -0.74 Log10”. The CC50 (in vitro [3]) was 351 µM and the cytotoxicity (in vitro [3]) was -5.9 to 89.5%.

In the case of `OC[C@@H](O)[C@@H](O[C@@H]1O[C@H](CO)[C@H](O)[C@H](O)[C@H]1O)[C@H](O)[C@@H](O)CO` [Lactitol], the maximum antiviral effect (HCoV-229E [1]; HCoV-229E) is reported as “about 8%”, the “% Antiviral Activity (Range)” value (HCoV-229E [1]) is reported as -1.2 to +5.3% and the EC50 (HCoV-229E [1]; Human coronavirus 229E) is reported as over 2900 µM. The maximum cytotoxicity (MRC-5 cells; [9]) was under 15%, the CC50 at 6 days (in vitro [3]; [10]) was over 2900 µM and the cytotoxicity at 6 days (in vitro [3]; [10]) was -8.9 to 1.8%. For the same compound, the IC50 (recombinant SCoV-2 PLpro; IC50, 100 nM PLpro) was 8800 ± 500 µM.

With `OC(c1cc(C(F)(F)F)nc2c(C(F)(F)F)cccc12)C1CCCCN1` (stereo not shown) [Mefloquine] the “protection from virus-induced CPE” value (HCoV-229E [1]; 120 μM, HCoV-229E, MRC-5) was ~ 62% and ~ 60%, the “% Antiviral Activity (Range)” value (HCoV-229E [1]) was -0.4 to +60.6% and the EC50 (HCoV-229E [1]; Human coronavirus 229E) was 108 µM. For the same compound, the “log10 inhibition of viral titers” value (HCoV-229E [2]; 120 μM, HCoV-229E, MRC-5) was about 0.8 log10, the “reduction in viral titers” value (HCoV-229E [2]; 120 μM, HCoV-229E, MRC-5) was 84.7% and the “% Reduction in Viral Load (Range)” value (HCoV-229E [2]; [8]) was “+84.7 to +38.4%”. The “Log10 Reduction in Viral Load (Range)” value (HCoV-229E [2]; [8]) was “+0.81 to +0.21 Log10”, the cytotoxicity (Vero E6 cells; 0.5 μM) was 7% and the cytotoxicity (Vero E6 cells; 5 μM) was “about 45%”. For the same compound, the viability at 30 h, 0.5 µM [4] was 93.2%, the viability at 30 h, 5 µM [4] was 45.6% and the CC50 at 6 days (in vitro [3]; [10]) was 173 µM. For the same compound, the cytotoxicity at 6 days (in vitro [3]; [10]) was 11.5 to 93.2%, the “% Inhibition (SCoV-2 N-positive cells)” value (SCoV-2 [5]; 0.5 µM (500 nM), SCoV-2-infected Vero E6, 30 h, 0.5 µM) was 30% and 30.6% and the inhibition at 0.5 µM (SCoV-2 [5]; Severe acute respiratory syndrome coronavirus 2, Vero C1008, 30 h, read-out: % Inhibition (SCoV-2 N-positive cells), 0.5 µM (500 nM), SCoV-2-infected Vero E6, 30 h) was about 31%. The IC50 (recombinant SCoV-2 PLpro; IC50, 100 nM PLpro) was ~459 µM and 459 µM.

With `Cc1cccc(C)c1OCC(=O)N[C@@H](Cc1ccccc1)[C@@H](O)C[C@H](Cc1ccccc1)NC(=O)[C@H](C(C)C)N1CCCNC1=O` [Lopinavir] the “Selectivity Index (CC50/EC50)” value (HCoV-229E [1]; HCoV-229E, MRC-5) was 2.03, the “% Antiviral Activity (Range)” value (HCoV-229E [1]) was -6.3 to +72.4% and the EC50 (HCoV-229E [1]; Human coronavirus 229E) was 33 µM. For the same compound, the “log10 inhibition / reduction in viral load” value (HCoV-229E [2]; 40 μM, HCoV-229E, MRC-5) was ~ 1.4 log10 and 1.42 log10, the “reduction in viral titers” value (HCoV-229E [2]; 40 μM, HCoV-229E, MRC-5) was “about 96%” and the “% Reduction in Viral Load (Range)” value (HCoV-229E [2]; [8]) was “+96.2 to +29.1%”. For the same compound, the “Log10 Reduction in Viral Load (Range)” value (HCoV-229E [2]; [8]) was “+1.42 to +0.15 Log10”, the CC50 at 6 days (in vitro [3]) was 67 µM and the cytotoxicity at 6 days (in vitro [3]) was -9.6 to 99.9%. For the same compound, the IC50 (recombinant SCoV-2 PLpro; IC50, 100 nM PLpro) was 1000 ± 100 µM.

In the case of `CC(C)c1nc(CN(C)C(=O)N[C@H](C(=O)N[C@@H](Cc2ccccc2)C[C@H](O)[C@H](Cc2ccccc2)NC(=O)OCc2cncs2)C(C)C)cs1` [Ritonavir], the “protection from virus-induced CPE” value (HCoV-229E [1]; 70 μM, HCoV-229E, MRC-5) is reported as “about 35%”, the “% Antiviral Activity (Range)” value (HCoV-229E [1]) is reported as -3.8 to +36.4% and the “log10 inhibition / reduction in viral load” value (HCoV-229E [2]; 70 μM, HCoV-229E, MRC-5) is reported as about 0.6 log10. For the same compound, the “reduction in viral titers” value (HCoV-229E [2]; 70 μM, HCoV-229E, MRC-5) was 73.3%, the “% Reduction in Viral Load (Range)” value (HCoV-229E [2]; [8]) was “+73.3 to -625.5%” and the “Log10 Reduction in Viral Load (Range)” value (HCoV-229E [2]; [8]) was “+0.57 to -0.86 Log10”. It also gave a cytotoxicity at 6 days (in vitro [3]; [10]) of 20.6 to 100%.

With `NC(=O)c1nc(F)c[nH]c1=O` [Favipiravir] the “protection from virus-induced CPE” value (HCoV-229E [1]; 250 μM, HCoV-229E, MRC-5) was “failed to show any obvious protection”, the “% Antiviral Activity (Range)” value (HCoV-229E [1]) was -0.6 to +26.9% and the inhibition at 500 µM (HCoV-229E [1]; Human coronavirus 229E, MRC5, 500 μM, HCoV-229E, MRC-5, read-out: cells in which virus-induced CPE was inhibited) was about 17%. For the same compound, the “% Reduction in Viral Load (Range)” value (HCoV-229E [2]; [8]) was 0.0 to +81.6%, the “Log10 Reduction in Viral Load (Range)” value (HCoV-229E [2]; [8]) was “+0.74 to 0.0 Log10” and the CC50 at 6 days (in vitro [3]) was 665 µM. The cytotoxicity at 6 days (in vitro [3]) was -8.1 to 67.5%.

For `Cc1ccc(N)cc1C(=O)N[C@H](C)c1cccc2ccccc12` [GRL0617, (R)-5-amino-2-methyl-N-(1-(naphthalen-1-yl)ethyl) benzamide], the “% Antiviral Activity (Range)” value (HCoV-229E [1]) was -1.9 to +33.7%, the “% Reduction in Viral Load (Range)” value (HCoV-229E [2]; [8]) was “Inconsistent” and the “Log10 Reduction in Viral Load (Range)” value (HCoV-229E [2]; [8]) was “Inconsistent”. For the same compound, the CC50 at 6 days (in vitro [3]) was 137 µM, the cytotoxicity at 6 days (in vitro [3]) was 6.2 to 76% and the IC50 (PLpro) was […].

For `CC(C)CN(C[C@@H](O)[C@H](Cc1ccccc1)NC(=O)O[C@H]1CO[C@H]2OCC[C@H]21)S(=O)(=O)c1ccc(N)cc1` [Darunavir], the “% Reduction in Viral Load (Range)” value (HCoV-229E [2]) was 0.0 to +97.6%, the “Log10 Reduction in Viral Load (Range)” value (HCoV-229E [2]) was 0.0 to +1.62 Log10 and the “log10 inhibition / reduction in viral load” value (HCoV-229E [2]) was 1.42 log10. For the same compound, the “reduction in viral titers” value (HCoV-229E [2]) was “about 96%”, the cytotoxicity (in vitro [3]) was -14.4 to 97.2% and the viability (in vitro [3]) was 44.5%. The “activity against SCoV-2 (in words)” value (SCoV-2 [6]) was “completely ineffective” and the IC50 (recombinant SCoV-2 PLpro; 100 nM PLpro, read-out: IC50) was 1320 ± 200 µM.

In the case of `CCC(CC)COC(=O)[C@H](C)N[P@](=O)(OC[C@H]1O[C@@](C#N)(c2ccc3c(N)ncnn23)[C@H](O)[C@@H]1O)Oc1ccccc1` [Remdesivir], the “% Cell Viability” value (Vero E6 cells; 10 µM, Vero E6, 30 h) is reported as 99.23%, the viability at 10 µM (in vitro [7]) is reported as over 99% and the “% Inhibition (SCoV-2 N-positive cells)” value (SCoV-2 [5]; 10 µM, SCoV-2-infected Vero E6, 30 h) is reported as 99.2%. The “cells protected from SCoV-2-induced CPE” value (SCoV-2 [5]; 10 μM, Vero E6) was over 99% and the inhibition at 10 µM (SCoV-2 [5]; Severe acute respiratory syndrome coronavirus 2, Vero C1008, 30 h, 10 µM, SCoV-2-infected Vero E6, 30 h, read-out: % Inhibition (SCoV-2 N-positive cells)) was over 99%.

With `C[C@H]1O[C@H](O[C@H]2[C@H](O)[C@@H](O)[C@@H](O[C@H]3[C@H](O)[C@@H](O)C(O)O[C@@H]3CO)O[C@@H]2CO)[C@H](O)[C@@H](O)[C@@H]1N[C@H]1C=C(CO)[C@@H](O)[C@H](O)[C@H]1O` (stereo partly shown) [Acarbose] the maximum antiviral effect (HCoV-229E [1]; HCoV-229E) was “about 8%”, the “% Antiviral Activity (Range)” value (HCoV-229E [1]) was “+0.3 to +7.2%” and the EC50 (HCoV-229E [1]; Human coronavirus 229E) was over 7750 µM. It also gave a maximum cytotoxicity (MRC-5 cells; human) of under 15%, a CC50 at 6 days (in vitro [3]) of over 7750 µM and a cytotoxicity at 6 days (in vitro [3]) of -15 to 7%. The IC50 (recombinant SCoV-2 PLpro; IC50, 100 nM PLpro) was 2000 ± 280 µM.

For `Cc1cc2nc3c(=O)[nH]c(=O)nc-3n(C[C@H](O)[C@H](O)[C@H](O)COP(=O)(O)OP(=O)(O)OC[C@H]3O[C@@H](n4cnc5c(N)ncnc54)[C@H](O)[C@@H]3O)c2cc1C` [FAD, Flavin adenine dinucleotide], the maximum antiviral effect (HCoV-229E [1]; HCoV-229E) was “about 8%”, the “% Antiviral Activity (Range)” value (HCoV-229E [1]) was -1.3 to +8.1% and the EC50 (HCoV-229E [1]; Human coronavirus 229E) was over 1200 µM. The maximum cytotoxicity (MRC-5 cells; [9]) was under 15%, the CC50 at 6 days (in vitro [3]; [10]) was over 1200 µM and the cytotoxicity at 6 days (in vitro [3]; [10]) was -10.5 to 12.7%. The IC50 (recombinant SCoV-2 PLpro; IC50, 100 nM PLpro) was ~127 µM and 127 µM.
